36 substances from US20230190924A1, “ANTIGEN OF ALLERGY AND EPITOPE THEREOF” (HOYU CO., LTD., priority 2017, published 2023) can be followed below.

This experiment concerns IgE antibodies from patients. The experiment is described as follows: Epitope mapping (2) overlapping (10-amino-acid peptides) and (3) alanine scanning on peptide arrays. The format is binding, human. The settings on record: for region within the epitope important for binding to IgE antibodies from patients: procedures (B) overlapping and (C) alanine scanning; for binding to IgE antibodies from patients, sequence comprising a region carboxy-terminally adjacent to the epitope / binding to IgE antibodies from patients, sequence comprising a region amino-terminally adjacent to the epitope: overlapping peptides with flanking sequence. The protocol:
On the basis of the sequences (SEQ ID NOs: 272-295 for vitellogenin-2 precursor, SEQ ID NOs: 296-303 for vitellogenin-3, SEQ ID NOs: 304-311 for apolipoprotein B precursor, and SEQ ID NOs: 312-318 for vitellogenin-1 or lipovitellin-1) of the peptides bound to an IgE antibody in serum in a patient-specific manner as described above in (A), a library of overlapping peptide fragments (length: 10 amino acids) was prepared using the sequences of the peptides and sequences in which sequences were added so as to flank each peptide in the amino acid sequences of allergen components (amino acid sequences of SEQ ID NO: 59, 106 or 262 for vitellogenin-2 precursor, SEQ ID NO: 2, 13 or 47 for vitellogenin-3, SEQ ID NO: 152, 237 or 251 for apolipoprotein B, and SEQ ID NO: 18 for vitellogenin-1 or lipovitellin-1) comprising the sequences of the peptide to carry out epitope mapping.
The peptides to be synthesized were shifted by one amino acid.
The library was prepared by the same procedure as described above in (A), and the presence or absence of binding of an IgE antibody present in the serum of a patient and a non-egg-allergic subject to each peptide fragment was measured by the same technique as described above. Amino acids at positions where the binding activity against IgE antibodies from patients were lost or decreased in the peptides shifted by one amino acid while binding activity against IgE antibodies from non-egg-allergic subjects arose were confirmed as amino acids adversely affecting the specificity of binding to IgE antibodies.
Chemiluminescence intensity in images obtained by measurement was converted into a numeric value in the same manner as in (A) using ImageQuant TL (GE Healthcare). Numeric values determined from images obtained as a result of using only anti-human IgE antibody-HRP antibody without carrying out the procedures (2) and (3) described above in the subsection titled (3) Spotting of cellulose-bound peptide solution were […] numeric values determined from images obtained from results about the serum of 6 patients. It was determined that a peptide having the resulting value larger than 0 had no binding activity against IgE antibodies when having less than 20% of values obtained using the sequences (amino acid sequences of SEQ ID NO: 59, 106 or 262 for vitellogenin-2, SEQ ID NO: 2, 13 or 47 for vitellogenin-3, SEQ ID NO: 152, 237 or 251 for apolipoprotein B, and SEQ ID NO: 18 for vitellogenin-1 or lipovitellin-1) serving as the basis of overlapping, had binding activity, albeit poor, against IgE antibodies when having 20% or more and less than 50% thereof, had binding activity, albeit somewhat poor, against IgE antibodies when having 50% or more and less than 70% thereof, had almost equivalent binding activity against IgE antibodies when having 70% or more and less than 90% thereof, and had equivalent or good binding activity against IgE antibodies and thus had remaining binding activity against IgE antibodies when having 90% or more thereof.
From the amino acid sequences identified above in (A), a library of peptide fragments in which N-terminal amino acids were substituted one by one by alanine according to a technique called alanine scanning (Non Patent Literature 1) was prepared by the same technique as described above. The presence or absence of binding of an IgE antibody present in the serum of a patient and a non-egg-allergic subject to each peptide fragment was measured by the same technique as described above. Amino acids at positions where the binding activity against IgE antibodies from patients were lost or decreased by the substitution by alanine while binding activity against IgE antibodies from non-egg-allergic subjects arose were confirmed as amino acids important for exertion of original antigenicity, or amino acids influencing exertion of original antigenicity.

Consider “SEQ ID NO: 392: region in epitope 8 (GWKELPTETP; epitope)”, for which the “region within the epitope important for binding to IgE antibodies from patients” value (shortened to “region within the epitope important”) is “important for binding”.

With “SEQ ID NO: 393: sequence comprising a region carboxy-terminally adjacent to epitope 8 (LPTETPLV; epitope)”, the “binding to IgE antibodies from patients, sequence comprising a region carboxy-terminally adjacent to the epitope” value is on record as “binding to IgE antibodies from patients”. Turning to “SEQ ID NO: 397: region in epitope 8 (KALQGWKELP; epitope)”, the “region within the epitope important” value was “important for binding”. Consider “SEQ ID NO: 400: region in epitope 8 (GWKELPTETP; epitope)”, for which the “region within the epitope important” value is recorded as “important for binding”. On to “SEQ ID NO: 401: sequence comprising a region carboxy-terminally adjacent to epitope 8 (LPTETPLVS; epitope)”, for which the “binding to IgE antibodies from patients, sequence comprising a region carboxy-terminally adjacent to the epitope” value is recorded as “binding to IgE antibodies from patients”. “SEQ ID NO: 402: sequence comprising a region carboxy-terminally adjacent to epitope 8 (LPTETPLVSA; epitope)”: the “binding to IgE antibodies from patients, sequence comprising a region carboxy-terminally adjacent to the epitope” value is on record as “binding to IgE antibodies from patients”. Consider “SEQ ID NO: 404: sequence comprising a region amino-terminally adjacent to epitope 9 (EVAFININKE; epitope)”, for which the “binding to IgE antibodies from patients, sequence comprising a region amino-terminally adjacent to the epitope” value was “binding to IgE antibodies from patients”. In the case of “SEQ ID NO: 407: region in epitope 9 (ELLQQ; epitope)”, the “region within the epitope important” value was “important for binding”. On to “SEQ ID NO: 409: sequence comprising a region amino-terminally adjacent to epitope 10 (LQQVMKTVVE; epitope)”, for which the “binding to IgE antibodies from patients, sequence comprising a region amino-terminally adjacent to the epitope” value is “binding to IgE antibodies from patients”. Take “SEQ ID NO: 412: region in epitope 10 (MKTVVEPA; epitope)”: the “region within the epitope important” value is reported as “important for binding”. The same measure, in the same setting: to “SEQ ID NO: 414: region in epitope 10 (ADRNA; epitope)” belongs “important for binding”; to “SEQ ID NO: 419: region in epitope 11 (DVKLKNLK; epitope)”, “important for binding”. With “SEQ ID NO: 422: sequence comprising a region amino-terminally adjacent to epitope 11 (PMKFDAKIDV; epitope)”, the “binding to IgE antibodies from patients, sequence comprising a region amino-terminally adjacent to the epitope” value is on record as “binding to IgE antibodies from patients”. For the substance “SEQ ID NO: 425: region in epitope 11 (DVKLKNLKI; epitope)”, the “region within the epitope important” value is “important for binding”.

Turning to “SEQ ID NO: 426: sequence comprising a region carboxy-terminally adjacent to epitope 11 (LKNLKIETNP; epitope)”, the “binding to IgE antibodies from patients, sequence comprising a region carboxy-terminally adjacent to the epitope” value is given as “binding to IgE antibodies from patients”. In the case of “SEQ ID NO: 430: region in epitope 14 (PSKKGNTVLA; epitope)”, the “region within the epitope important” value is on record as “important for binding”. On to “SEQ ID NO: 434: region in epitope 15 (SSSSSNSKS; epitope)”, for which the “region within the epitope important” value is “important for binding”. As for “SEQ ID NO: 436: region in epitope 15 (SSSNSKSSSS; epitope)”, the “region within the epitope important” value is given as “important for binding”. On the same count and under the same terms, with “SEQ ID NO: 440: region in epitope 15 (SSNSKSS; epitope)” the entry was “important for binding”. Regarding “SEQ ID NO: 444: region in epitope 16 (QEFPKRKLPG; epitope)”, the “region within the epitope important” value is “important for binding”. “SEQ ID NO: 446: region in epitope 16 (PKRKLPGDRA; epitope)”: the “region within the epitope important” value is recorded as “important for binding”. “SEQ ID NO: 449: region in epitope 16 (RKLPGDRATS; epitope)”: the “region within the epitope important” value is recorded as “important for binding”. In the case of “SEQ ID NO: 451: sequence comprising a region amino-terminally adjacent to epitope 17 (FVTNLTDSSK; epitope)”, the “binding to IgE antibodies from patients, sequence comprising a region amino-terminally adjacent to the epitope” value is on record as “binding to IgE antibodies from patients”. With “SEQ ID NO: 452: sequence comprising a region amino-terminally adjacent to epitope 17 (TNLTDSSKWK; epitope)”, the “binding to IgE antibodies from patients, sequence comprising a region amino-terminally adjacent to the epitope” value is listed as “binding to IgE antibodies from patients”. “SEQ ID NO: 455: region in epitope 17 (TDSSKWKLCA; epitope)”: the “region within the epitope important” value is reported as “important for binding”. As for “SEQ ID NO: 458: region in epitope 17 (KWKLCADAS; epitope)”, the “region within the epitope important” value is “important for binding”. As to “SEQ ID NO: 461: region in epitope 19 (KIKTF; epitope)”, the “region within the epitope important” value is “important for binding”. Consider “SEQ ID NO: 462: sequence comprising a region amino-terminally adjacent to epitope 19 (NKIKTFNE; epitope)”, for which the “binding to IgE antibodies from patients, sequence comprising a region amino-terminally adjacent to the epitope” value is reported as “binding to IgE antibodies from patients”. Turning to “SEQ ID NO: 464: region in epitope 19 (FNEVKFNYSM; epitope)”, the “region within the epitope important” value is “important for binding”.

In the case of “SEQ ID NO: 465: sequence comprising a region carboxy-terminally adjacent to epitope 19 (VKFNYSMPAN; epitope)”, the “binding to IgE antibodies from patients, sequence comprising a region carboxy-terminally adjacent to the epitope” value was “binding to IgE antibodies from patients”.

On to “SEQ ID NO: 466: sequence comprising a region carboxy-terminally adjacent to epitope 19 (FNYSMPANCY; epitope)”, for which the “binding to IgE antibodies from patients, sequence comprising a region carboxy-terminally adjacent to the epitope” value is on record as “binding to IgE antibodies from patients”.

Regarding “SEQ ID NO: 470: region in epitope 20 (EATNLKAIN; epitope)”, the “region within the epitope important” value is reported as “important for binding”. Consider “SEQ ID NO: 471: sequence comprising a region amino-terminally adjacent to epitope 20 (GEATNLKAIN; epitope)”, for which the “binding to IgE antibodies from patients, sequence comprising a region amino-terminally adjacent to the epitope” value is reported as “binding to IgE antibodies from patients”. For the substance “SEQ ID NO: 473: region in epitope 20 (INIKIGSH; epitope)”, the “region within the epitope important” value is on record as “important for binding”. In the case of “SEQ ID NO: 476: sequence comprising a region carboxy-terminally adjacent to epitope 20 (AINIKIGSHE; epitope)”, the “binding to IgE antibodies from patients, sequence comprising a region carboxy-terminally adjacent to the epitope” value was “binding to IgE antibodies from patients”.

Consider “SEQ ID NO: 479: sequence comprising a region amino-terminally adjacent to epitope 20 (KSAGEATNLK; epitope)”, for which the “binding to IgE antibodies from patients, sequence comprising a region amino-terminally adjacent to the epitope” value is on record as “binding to IgE antibodies from patients”.
